Experimental data as given in the NIST ThermoML archive (doi:10.1021/je900962v).
Where “and” joins values, the source holds several entries; their conditions need not be identical. Equal values may be shown once.

What was measured:
[1] = 298.15 K
[2] = xn = mol fraction of the nth substance listed; conditions: 298.15 K

CCCCOC(C)=O [butyl ethanoate]
Conditions | surface tension liquid-gas [mN/m]
[1] | 24.91

CCCCOC(C)=O [butyl ethanoate] + O
[2]
Conditions | surface tension liquid-gas [mN/m]
x1 = 7.97e-05 | 63.74
x1 = 7.99e-05 | 64.49
x1 = 8.76e-05 | 63.71
x1 = 8.81e-05 | 64.3
x1 = 0.000104 | 62.6
x1 = 0.000124 | 61.81
x1 = 0.000131 | 61.47
x1 = 0.000142 | 61.15
x1 = 0.000173 | 59.3
x1 = 0.000216 | 57.5
x1 = 0.000274 | 55.53
x1 = 0.000343 | 53.31
x1 = 0.000439 | 51.12
x1 = 0.000536 | 49.09
x1 = 0.00067 | 46.9
x1 = 0.000754 | 45.57
x1 = 0.00081 | 44.42
x1 = 0.000933 | 43.1
x1 = 1 | 24.91

CCOC(C)=O [ethyl acetate]
Conditions | surface tension liquid-gas [mN/m]
[1], Drop volume | 23.93

CCOC(C)=O [ethyl acetate] + O
[2], Drop volume
Conditions | surface tension liquid-gas [mN/m]
x1 = 0.0011 | 62.08
x1 = 0.0013 | 60.95
x1 = 0.0014 | 60.43
x1 = 0.0017 | 59.33
x1 = 0.0018 | 58.8
x1 = 0.0025 | 56.64
x1 = 0.0033 | 54.17
x1 = 0.0044 | 51.16
x1 = 0.0054 | 48.98
x1 = 0.0061 | 47.92
x1 = 0.008 | 44.22
x1 = 0.0089 | 43.31
x1 = 0.0118 | 41.37
x1 = 0.0141 | 38.97
x1 = 1 | 23.93

COC(C)=O [methyl ethanoate]
Conditions | surface tension liquid-gas [mN/m]
[1], Drop volume | 24.79

COC(C)=O [methyl ethanoate] + O
[2], Drop volume
Conditions | surface tension liquid-gas [mN/m]
x1 = 0.004 | 61.87
x1 = 0.0047 | 60.57
x1 = 0.0056 | 59.67
x1 = 0.0069 | 57.62
x1 = 0.0093 | 54.72
x1 = 0.0115 | 53.25
x1 = 0.0147 | 49.91
x1 = 0.0183 | 48.18
x1 = 0.0214 | 46.68
x1 = 0.0245 | 44.35
x1 = 0.029 | 42.63
x1 = 0.0341 | 40.26
x1 = 0.0433 | 36.64
x1 = 0.0523 | 33.49
x1 = 0.0586 | 31.61
x1 = 0.0702 | 29.12
x1 = 1 | 24.79

CCCOC(C)=O [propyl ethanoate]
Conditions | surface tension liquid-gas [mN/m]
[1], Drop volume | 24.22

CCCOC(C)=O [propyl ethanoate] + O
[2], Drop volume
Conditions | surface tension liquid-gas
x1 = 0.00017 | 65.86 mN/m
x1 = 0.00023 | 64.54 mN/m
x1 = 0.00031 | 62.64 mN/m and 63.23 mN/m
x1 = 0.00038 | 61.64 mN/m
x1 = 0.00041 | 61.43 mN/m
x1 = 0.00049 | 60.29 mN/m
x1 = 0.00052 | 59.4 mN/m
x1 = 0.00057 | 59.02 mN/m
x1 = 0.00071 | 57.47 mN/m
x1 = 0.00074 | 56.94 mN/m
x1 = 0.00083 | 56.17 mN/m
x1 = 0.00103 | 54.38 mN/m
x1 = 0.00104 | 53.7 mN/m
x1 = 0.00114 | 53.49 mN/m
x1 = 0.00116 | 53.22 mN/m
x1 = 0.00142 | 50.93 mN/m and 51.11 mN/m
x1 = 0.00158 | 49.17 mN/m
x1 = 0.00159 | 49.3 mN/m
x1 = 0.00208 | 46.76 mN/m
x1 = 0.00239 | 45.44 mN/m
x1 = 0.00318 | 42.65 mN/m
x1 = 0.00355 | 41.31 mN/m
x1 = 0.00367 | 40.63 mN/m
x1 = 0.0038 | 40.55 mN/m
x1 = 1 | 24.22 mN/m

O [water]
Conditions | surface tension liquid-gas [mN/m]
[1], Drop volume | 71.57

O [water] + CCCCOC(C)=O
Conditions | surface tension liquid-gas [mN/m]
[2], x2 = 0 | 71.57

O [water] + CCCOC(C)=O
Conditions | surface tension liquid-gas [mN/m]
[2], Drop volume, x2 = 0 | 71.57

O [water] + CCOC(C)=O
Conditions | surface tension liquid-gas [mN/m]
[2], Drop volume, x2 = 0 | 71.57

O [water] + COC(C)=O
Conditions | surface tension liquid-gas [mN/m]
[2], Drop volume, x2 = 0 | 71.57
